20 compounds from patent US8614201B2 (Janssen Pharmaceutica NV, priority 2009, dated 2013) can be followed below.

Human TRPA1, sequence (O75762 whole entry): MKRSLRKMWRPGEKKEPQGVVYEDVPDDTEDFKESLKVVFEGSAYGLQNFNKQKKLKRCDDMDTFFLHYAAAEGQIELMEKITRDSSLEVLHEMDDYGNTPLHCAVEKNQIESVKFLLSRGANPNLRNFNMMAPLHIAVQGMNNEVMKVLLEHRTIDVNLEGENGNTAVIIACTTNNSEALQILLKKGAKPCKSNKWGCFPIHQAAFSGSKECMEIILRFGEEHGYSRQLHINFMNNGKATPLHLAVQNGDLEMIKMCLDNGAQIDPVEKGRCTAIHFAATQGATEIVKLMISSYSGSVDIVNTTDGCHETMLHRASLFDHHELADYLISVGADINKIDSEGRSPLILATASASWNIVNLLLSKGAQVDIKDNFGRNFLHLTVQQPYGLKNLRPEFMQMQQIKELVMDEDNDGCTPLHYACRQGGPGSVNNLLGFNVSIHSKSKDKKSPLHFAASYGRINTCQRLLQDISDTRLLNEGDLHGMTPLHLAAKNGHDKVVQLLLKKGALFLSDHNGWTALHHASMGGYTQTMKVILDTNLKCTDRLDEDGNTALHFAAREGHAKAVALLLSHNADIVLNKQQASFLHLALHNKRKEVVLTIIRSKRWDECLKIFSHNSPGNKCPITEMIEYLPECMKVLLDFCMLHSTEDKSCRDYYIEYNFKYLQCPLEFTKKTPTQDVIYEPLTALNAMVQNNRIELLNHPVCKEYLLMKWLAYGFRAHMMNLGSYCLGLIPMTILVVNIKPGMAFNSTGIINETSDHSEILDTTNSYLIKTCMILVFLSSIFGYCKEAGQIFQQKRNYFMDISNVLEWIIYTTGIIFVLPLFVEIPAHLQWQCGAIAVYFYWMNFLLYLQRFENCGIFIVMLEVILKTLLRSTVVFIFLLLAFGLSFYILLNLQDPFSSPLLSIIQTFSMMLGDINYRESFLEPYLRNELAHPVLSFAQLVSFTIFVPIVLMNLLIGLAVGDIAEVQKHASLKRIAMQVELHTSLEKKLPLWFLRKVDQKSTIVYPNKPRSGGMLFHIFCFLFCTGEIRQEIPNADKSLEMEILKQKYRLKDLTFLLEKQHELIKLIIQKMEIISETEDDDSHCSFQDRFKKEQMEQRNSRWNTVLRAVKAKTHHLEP

For this experiment, the target named is Human TRPA1 (Homo sapiens, UniProt O75762). The experiment in a line: Assay 1: In vitro cellular testing of TRPA1 modulation (CHO-TREx, Fluo-3 calcium fluorescence, AITC agonist). In kind it is cell-based. Also noted: expressed in transfected cells; host or cells: CHO-TREx cells (Invitrogen), vector pcDNA4/TO. The settings on record: CHO-TREx cells expressing human TRPA1; Fluo-3 fluorescence (FLIPR/Tetra); agonist 15 μM allyl isothiocyanate (AITC); 30 minute antagonist incubation. The method in brief:
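Antagonist potency is the 50% reduction of the AITC (15 μM) calcium response, Hill-fitted against no-antagonist and 10 μM ruthenium red controls. Fluo-3-loaded (4 μM) CHO-TREx cells with tetracycline-inducible human TRPA1 got compound in HEPES saline pH 7.4 for 30 min, usually from 10 μM in three-fold dilutions.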
As for `CC(Nc1cc(CNC(=O)[C@@H]2CC(F)(F)CN2S(=O)(=O)c2ccc(F)cc2)cc(-c2ccc(C(F)(F)F)cc2)n1)c1cccnc1` (stereo partly drawn) [Example 398, 4,4-Difluoro-1-[(4-fluorophenyl)sulfonyl]-N-({2-[(1-pyridin-3-ylethyl)amino]-6-[4-(trifluoromethyl)phenyl]pyridin-4-yl}methyl)-L-prolinamide], the IC50 – broadly, the concentration at which inhibition is half-maximal – is 7090 nM.
On to `CC(Nc1cc(CNC(=O)[C@@H]2CC(F)(F)CN2S(=O)(=O)c2ccc(Cl)s2)cc(-c2ccc(C(F)(F)F)cc2)n1)c1cccnc1` (stereo partly drawn) [Example 399, 1-[(5-Chlorothiophen-2-yl)sulfonyl]-4,4-difluoro-N-({2-[(1-pyridin-3-ylethyl)amino]-6-[4-(trifluoromethyl)phenyl]pyridin-4-yl}methyl)-L-prolinamide], for which the IC50 was determined as 2610 nM.
Turning to `CC(Nc1cc(CNC(=O)[C@@H]2CC(F)(F)CN2S(=O)(=O)c2ccc(Cl)s2)cc(-c2ccc(C(F)(F)F)cc2)n1)c1ccncc1` (stereo partly drawn) [Example 400, 1-[(5-Chlorothiophen-2-yl)sulfonyl]-4,4-difluoro-N-({2-[(1-pyridin-4-ylethyl)amino]-6-[4-(trifluoromethyl)phenyl]pyridin-4-yl}methyl)-L-prolinamide], the IC50 turned out to be 1830 nM.
Consider `CC(Nc1cc(CNC(=O)[C@@H]2CC(F)(F)CN2S(=O)(=O)c2ccc(F)cc2)cc(-c2ccc(C(F)(F)F)cc2)n1)c1ccncc1` (stereo partly drawn) [Example 401, 4,4-Difluoro-1-[(4-fluorophenyl)sulfonyl]-N-({2-[(1-pyridin-4-ylethyl)amino]-6-[4-(trifluoromethyl)phenyl]pyridin-4-yl}methyl)-L-prolinamide], for which the IC50 amounted to 2520 nM.
`CC(Nc1cc(CNC(=O)[C@@H]2CCCN2S(=O)(=O)c2ccc(F)cc2)cc(-c2ccc(C(F)(F)F)cc2)n1)c1ccncc1` (stereo partly drawn) [Example 402, 1-[(4-Fluorophenyl)sulfonyl]-N-({2-[(1-pyridin-4-ylethyl)amino]-6-[4-(trifluoromethyl)phenyl]pyridin-4-yl}methyl)-L-prolinamide]: the IC50 stood at 594 nM.
With `CC(Nc1cc(CNC(=O)[C@@H]2CCCN2S(=O)(=O)c2ccc(Cl)s2)cc(-c2ccc(C(F)(F)F)cc2)n1)c1ccncc1` (stereo partly drawn) [Example 403, 1-[(5-Chlorothiophen-2-yl)sulfonyl]-N-({2-[(1-pyridin-4-ylethyl)amino]-6-[4-(trifluoromethyl)phenyl]pyridin-4-yl}methyl)-L-prolinamide], the IC50 worked out at 466 nM.
Consider `CC(Nc1cc(CNC(=O)[C@@H]2C=CCN2S(=O)(=O)c2ccc(Cl)s2)cc(-c2ccc(C(F)(F)F)cc2)n1)c1ccncc1` (stereo partly drawn) [Example 404, (2S)-1-[(5-Chlorothiophen-2-yl)sulfonyl]-N-({2-[(1-pyridin-4-ylethyl)amino]-6-[4-(trifluoromethyl)phenyl]pyridin-4-yl}methyl)-2,5-dihydro-1H-pyrrole-2-carboxamide], for which the IC50 is 1910 nM.
As to `CC(Nc1cc(CNC(=O)[C@@H]2CCCN2S(=O)(=O)c2ccc(Cl)s2)cc(-c2ccc(C(F)(F)F)cc2)n1)c1cccnc1` (stereo partly drawn) [Example 405, 1-[(5-Chlorothiophen-2-yl)sulfonyl]-N-({2-[(1-pyridin-3-ylethyl)amino]-6-[4-(trifluoromethyl)phenyl]pyridin-4-yl}methyl)-L-prolinamide], the IC50 was 481 nM.
Under `CC(Nc1cc(CNC(=O)[C@@H]2C=CCN2S(=O)(=O)c2ccc(F)cc2)cc(-c2ccc(C(F)(F)F)cc2)n1)c1ccccc1` (stereo partly drawn) [Example 406, (2S)-1-[(4-Fluorophenyl)sulfonyl]-N-({2-[(1-phenylethyl)amino]-6-[4-(trifluoromethyl)phenyl]pyridin-4-yl}methyl)-2,5-dihydro-1H-pyrrole-2-carboxamide] stands 833 nM; under `CC(Nc1cc(CNC(=O)[C@@H]2C=CCN2S(=O)(=O)c2ccc(Cl)s2)cc(-c2ccc(C(F)(F)F)cc2)n1)c1ccccc1` (stereo partly drawn) [Example 407, (2S)-1-[(5-Chlorothiophen-2-yl)sulfonyl]-N-({2-[(1-phenylethyl)amino]-6-[4-(trifluoromethyl)phenyl]pyridin-4-yl}methyl)-2,5-dihydro-1H-pyrrole-2-carboxamide], 185 nM.
Consider `CC(Nc1cc(CNC(=O)[C@@H]2CCCN2S(=O)(=O)c2ccc(F)cc2)cc(-c2ccc(C(F)(F)F)cc2)n1)c1ccccn1` (stereo partly drawn) [Example 408, 1-[(4-Fluorophenyl)sulfonyl]-N-({2-[(1-pyridin-2-ylethyl)amino]-6-[4-(trifluoromethyl)phenyl]pyridin-4-yl}methyl)-L-prolinamide], for which the IC50 is 54 nM.
With `CC(Nc1cc(CNC(=O)[C@@H]2CCCN2S(=O)(=O)c2ccc(Cl)s2)cc(-c2ccc(C(F)(F)F)cc2)n1)c1ccccn1` (stereo partly drawn) [Example 409, 1-[(5-Chlorothiophen-2-yl)sulfonyl]-N-({2-[(1-pyridin-2-ylethyl)amino]-6-[4-(trifluoromethyl)phenyl]pyridin-4-yl}methyl)-L-prolinamide], the IC50 was 64 nM.
Consider `CC(Nc1cc(CNC(=O)[C@@H]2CC(F)(F)CN2S(=O)(=O)c2ccc(F)cc2)cc(-c2ccc(C(F)(F)F)cc2)n1)c1ccccc1` (stereo partly drawn) [Example 410, 4,4-Difluoro-1-[(4-fluorophenyl)sulfonyl]-N-({2-[(1-phenylethyl)amino]-6-[4-(trifluoromethyl)phenyl]pyridin-4-yl}methyl)-L-prolinamide], for which the IC50 amounted to 1260 nM.
For `CC(Nc1cc(CNC(=O)[C@@H]2CC(F)(F)CN2S(=O)(=O)c2ccc(Cl)s2)cc(-c2ccc(C(F)(F)F)cc2)n1)c1ccccc1` (stereo partly drawn) [Example 411, 1-[(5-Chlorothiophen-2-yl)sulfonyl]-4,4-difluoro-N-({2-[(1-phenylethyl)amino]-6-[4-(trifluoromethyl)phenyl]pyridin-4-yl}methyl)-L-prolinamide], the IC50 came to 1430 nM.
In the case of `CC(Nc1cc(CNC(=O)[C@@H]2C=CCN2S(=O)(=O)c2ccc(F)cc2)cc(-c2ccc(C(F)(F)F)cc2)n1)c1ccncc1` (stereo partly drawn) [Example 412, (2S)-1-[(4-Fluorophenyl)sulfonyl]-N-({2-[(1-pyridin-4-ylethyl)amino]-6-[4-(trifluoromethyl)phenyl]pyridin-4-yl}methyl)-2,5-dihydro-1H-pyrrole-2-carboxamide], the IC50 was found to be 1270 nM.
Turning to `CC(Nc1cc(CNC(=O)[C@@H]2CCCN2S(=O)(=O)c2ccc(F)cc2)cc(-c2ccc(C(F)(F)F)cc2)n1)c1ccccc1` (stereo partly drawn) [Example 413, 1-[(4-Fluorophenyl)sulfonyl]-N-({2-[(1-phenylethyl)amino]-6-[4-(trifluoromethyl)phenyl]pyridin-4-yl}methyl)-L-prolinamide], the IC50 was 269 nM.
In the case of `CC(Nc1cc(CNC(=O)[C@@H]2CCCN2S(=O)(=O)c2ccc(Cl)s2)cc(-c2ccc(C(F)(F)F)cc2)n1)c1ccccc1` (stereo partly drawn) [Example 414, 1-[(5-Chlorothiophen-2-yl)sulfonyl]-N-({2-[(1-phenylethyl)amino]-6-[4-(trifluoromethyl)phenyl]pyridin-4-yl}methyl)-L-prolinamide], the IC50 is 57 nM.
As for `CC(Nc1cc(CNC(=O)[C@@H]2CC(F)(F)CN2S(=O)(=O)c2ccc(Cl)s2)cc(-c2ccc(C(F)(F)F)cc2)n1)c1ccccn1` (stereo partly drawn) [Example 415, 1-[(5-Chlorothiophen-2-yl)sulfonyl]-4,4-difluoro-N-({2-[(1-pyridin-2-ylethyl)amino]-6-[4-(trifluoromethyl)phenyl]pyridin-4-yl}methyl)-L-prolinamide], the IC50 is 570 nM.
For the compound `CC(Nc1cc(CNC(=O)[C@@H]2CC(F)(F)CN2S(=O)(=O)c2ccc(F)cc2)cc(-c2ccc(C(F)(F)F)cc2)n1)c1ccccn1` (stereo partly drawn) [Example 416, 4,4-Difluoro-1-[(4-fluorophenyl)sulfonyl]-N-({2-[(1-pyridin-2-ylethyl)amino]-6-[4-(trifluoromethyl)phenyl]pyridin-4-yl}methyl)-L-prolinamide], the IC50 worked out at 1060 nM.
In the case of `CC1CCCN1c1cc(CNC(=O)[C@@H]2C=CCN2S(=O)(=O)c2ccc(Cl)s2)cc(-c2ccc(C(F)(F)F)cc2)n1` (stereo partly drawn) [Example 417, (2S)-1-[(5-Chlorothiophen-2-yl)sulfonyl]-N-({2-(2-methylpyrrolidin-1-yl)-6-[4-(trifluoromethyl)phenyl]pyridin-4-yl}methyl)-2,5-dihydro-1H-pyrrole-2-carboxamide], the IC50 was 82 nM.
